Experimental data as given in paper PMC11280343, “Rubus urticifolius Compounds with Antioxidant Activity, and Inhibition Potential against Tyrosinase, Melanin, Hyaluronidase, Elastase, and Collagenase” (Pharmaceuticals, 2024).
Read-outs that look alike come from different tables or passages of the source.

Tests used:
[1] = test system: Nrf2; assay: Nrf2 activation assay, THP-1; type: cell-based
Description: (§1) To determine the antioxidant response of the samples (at the same concentration as in the viability assay), Nrf2 activation assay was used, following the protocol carried out by Apaza Ticona et al.. Cells were cultured in 96-well plates (1 × 10^6 cells/well). […] Absorbance was measured at 540 nm using a microplate reader.

[2] = test system: Nrf2; assay: Nrf2 activation assay, HMCB; type: cell-based; details: Homo sapiens, 72 h, read-out: Activation of Nrf2 production EC50
Description: as §1

[3] = test system: collagenase; assay: Collagenase inhibitory assay; type: biochemical; details: for Collagenase Inhibition (%): inhibition percentage 'at an IC50', concentration not otherwise stated; for IC50: read-out: Anti-Collagenase IC50
Description: A fixed weight of 1 mg of azo dye-impregnated collagen was measured in the test tubes. Subsequently, 800 μL of 0.1 M Tris-HCl (pH 7) and 100 μL of the samples at the same concentrations used as in the viability assay were added to each test tube. Next, 100 μL of collagenase (200 units/mL) was immediately mixed into the mixture and the tubes were incubated at 43 °C for 1 h. After incubation, the test tubes were centrifuged at 3000 rpm for 10 min. The supernatant from each tube was transferred into 96-well plates and the absorbance of each supernatant was measured at 550 nm using a microplate reader.

[4] = test system: NF-κB; assay: NF-κB inhibition assay (LPS-stimulated), WS1; type: cell-based; details: Homo sapiens, 72 h, read-out: NF-κB Inhibition at 72 h IC50 ± SEM
Description: as §1, with “anti-inflammatory activity” for “antioxidant response”, “NF-κB inhibition” for “Nrf2 activation”, “450” for “540”

[5] = test system: Nrf2; assay: Nrf2 activation assay, WS1; type: cell-based; details: Homo sapiens, read-out: Activation of Nrf2 production EC50
Description: as §1

[6] = target: T1, elastase from porcine pancreas (Sus scrofa, UniProt P00772); assay: Elastase-inhibitory effect assay; type: biochemical; details: for Elastase Inhibition (%): inhibition percentage 'at an IC50', concentration not otherwise stated
T1 construct: elastase from porcine pancreas (7.5 units/mL); from tissue; host or cells: porcine pancreas
Description: The elastase-inhibitory effect was evaluated, implementing the protocol adapted from Tu and Tawata.
A mixture containing N-succinyl-Ala-Ala-Ala-p-nitroanilide (AAAPVN, Merck, Cat. No. 52299-14-6, St. Louis, MO, USA) elastase substrate in 0.1232 M Tris-HCl buffer solution (pH 8) was prepared to achieve a concentration of 1.015 mM. This elastase substrate was combined with 10 μL of the test samples at the same concentrations used as in the viability assay in 96-well plates and pre-incubated at room temperature (25 ± 5 °C) for 10 min. Subsequently, the reaction was initiated by adding 10 μL of elastase from porcine pancreas (7.5 units/mL) in Tris buffer solution to the pre-incubated mixtures. Absorbance was then measured at 410 nm using a microplate reader.

[7] = test system: THP-1 cell line; assay: NR viability assay, THP-1; type: cell-based, Homo sapiens; details: 72 h
Description: (§2) The HEK001 (Homo sapiens cutaneous keratinocyte, CCL-2404), WS1 (Homo sapiens cutaneous fibroblast, CRL-1502), HMCB (Homo sapiens cutaneous melanoma, CRL-9607), and THP-1 (Homo sapiens peripheral blood monocyte, TIB-202) cell lines used in this study were obtained from the American Type Culture Collection (ATCC, Manassas, VA, USA). Cultivated in a Roswell Park Memorial Institute (RPMI) 1640 medium (RPMI 1640 Merck, Cat. No. R7755, New York, NY, USA) supplemented with 2 mM L-glutamine (≥99% Merck, Cat. No. 56-85-9), 10% fetal bovine serum (FBS Merck, Cat. No. TMS-016, St. Louis, MO, USA), and 10,000 units of penicillin and 10 mg streptomycin/mL (Merck, Cat. No. P4333, St. Louis, MO, USA) in culture flasks, the cells were maintained in an incubator under normoxic conditions (20–21% O2) and a humidified atmosphere (5% CO2 at 37 °C).
(§3) Mother solutions of samples (extracts, fractions, and compounds) were prepared at a concentration of […] using dimethyl sulfoxide (DMSO ≥ 99.9% Merck, Cat. No. 67-68-5, St. Louis, MO, USA) as the solvent. From these mother solutions, dilutions were prepared at concentrations ranging from 100 to 0.20 μg/mL or μM in culture medium containing 0.5% DMSO. Additionally, a negative control group consisting solely of culture medium with 0.5% DMSO was included to assess its potential cytotoxic effect on the cells.
(§4) Cell viability was evaluated using a colorimetric assay in 96-well plates, employing 3-amino-7-dimethylamino-2-methylphenazine hydrochloride salt reagent (NR, Merck, Cat. No. 553-24-2, St. Louis, MO, USA).
(§5) HEK001, WS1, HMCB, and THP-1 cell lines were cultured in 96-well plates at 37 °C with 5% CO2 until > 90% confluency was achieved (1 × 10^6 cells/well). Subsequently, the cultures were treated with sample dilutions (100–0.20 μg/mL or μM) for 72 h at 37 °C with 5% CO2 in phenol red-free RPMI. The supernatant was then discarded and the cells were washed with phosphate-buffered saline (PBS) before being incubated with […] NR (50 μg/mL; 173 μM) for 3 h at 37 °C with 5% CO2. NR labelling was performed after DMSO treatment. After incubation, the labelled sample dilutions were rapidly washed with a fixative solution composed of 1% calcium chloride (CaCl2 Merck, Cat. No. 10043-52-4, St. Louis, MO, USA) and 0.5% formaldehyde solution (≥36.0% in H2O Merck, Cat. No. 50-00-0, St. Louis, MO, USA), then diluted with 100 μL of the NR extraction solution. Finally, the plates were read at 540 nm using a microplate reader (Anthos 2020, version 2.0.5, Biochrom Ltd., Cambridge, UK).

[8] = test system: WS1 cell line; assay: NR viability assay, WS1; type: cell-based, Homo sapiens; details: WS1, NR assay, 72 h
Description: as §2, §3, §4, §5

[9] = test system: HMCB cell line; assay: NR viability assay, HMCB; type: cell-based, Homo sapiens; details: HMCB, NR assay, 72 h
Description: as §2, §3, §4, §5

[10] = test system: HEK001 cell line; assay: NR viability assay, HEK001; type: cell-based, Homo sapiens; details: HEK001, NR assay, 72 h
Description: as §2, §3, §4, §5

[11] = Homo sapiens, THP-1, 72 h; read-out: Activation of Nrf2 production EC50

T1 sequence (P00772 27-266): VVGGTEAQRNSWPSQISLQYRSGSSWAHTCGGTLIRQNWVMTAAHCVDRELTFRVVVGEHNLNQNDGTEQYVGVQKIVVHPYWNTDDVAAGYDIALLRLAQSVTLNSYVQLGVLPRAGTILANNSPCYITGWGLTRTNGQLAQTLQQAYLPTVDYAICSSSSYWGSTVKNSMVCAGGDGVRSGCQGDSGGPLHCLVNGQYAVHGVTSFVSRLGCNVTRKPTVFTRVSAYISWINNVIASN

SMILES: CNC(=O)c1ccccc1NC(=O)/C=C/c1ccc(OC)c(OC)c1 [Compound 1, (E)-2-(3-(3,4-dimethoxyphenyl)acrylamido)-N-methylbenzamide]
- EC50 [1, 11]: 0.116 µM
- EC50 [2]: 0.385 µM
- Collagenase Inhibition (%) [3]: 62.24 ± 1.42%
- IC50 [3]: 76.6 ± 1.31 µM
- IC50 ([4]; WS1, LPS-stimulated): 11 ± 0.67 µM
- EC50 ([5]; WS1, 72 h): 0.268 µM
- Elastase Inhibition (%) [6]: 60.76 ± 1.44%
- IC50 ([6]; read-out: Anti-Elastase IC50): 80.1 ± 1.92 µM

SMILES: O=C(O)c1cc(O)c2ccccc2n1 [Compound 2, 4-hydroxyquinoline-2-carboxylic acid]
- EC50 [1, 11]: 0.49 µM
- EC50 [2]: 0.506 µM
- Collagenase Inhibition (%) [3]: 24.87 ± 1.34%
- IC50 [3]: 152 ± 3.73 µM
- CC50 ([7]; human): > 100 µM
- IC50 ([4]; WS1, LPS-stimulated): 32.7 ± 0.51 µM
- EC50 ([5]; WS1, 72 h): 0.361 µM
- Elastase Inhibition (%) [6]: 17.68 ± 1.46%
- IC50 ([6]; read-out: Anti-Elastase IC50): 168 ± 3.09 µM

SMILES: N#C/C(=C\c1ccc(O)cc1)C(=O)O [Compound 3, (E)-2-cyano-3-(4-hydroxyphenyl)acrylic acid]
- CC50 [8]: > 100 µM
- EC50 ([1]; Homo sapiens, THP-1, 72 h, read-out: Activation of Nrf2 production EC50): 0.707 µM
- EC50 [2]: 1.02 µM
- Collagenase Inhibition (%) [3]: 7.73 ± 1.21%
- IC50 [3]: 187 ± 2.61 µM
- CC50 ([7]; THP-1, NR assay, read-out: Viability CC50): > 100 µM
- IC50 [4]: 53.21 ± 0.23 µM
- EC50 ([5]; 72 h): 0.983 µM
- IC50 [6]: 192 ± 3.78 µM
- Elastase Inhibition (%) [6]: 6.19 ± 1.44%
- CC50 [9]: 98.6 µM
- CC50 [10]: > 100 µM
